This is an account of results in patent publication US12187816B2, “Macrocyclic compounds and methods of use thereof” (Genentech, Inc., priority 2020, dated 2025).

Starred links: 1 amine or outer side, 2 acyl side, 3 side chain; linkers in the order of their positions; H or OH if unused. Positions of bridges follow the written chain, without caps; N, C: chain ends. Non-standard residues stand in square brackets, D forms with d. Residues, ends and D or L forms follow the SMILES beside them. *: point of attachment. JQ1acid = Cc1sc2c(c1C)C(c1ccc(Cl)cc1)=N[C@@H](CC(=O)*)c1nnc(C)n1-2; dPhg(4-(4-Me-thiazol-5-yl)) = Cc1ncsc1-c1ccc([C@@H](N)C(=O)O)cc1; Phg(4-(4-Me-thiazol-5-yl)) = Cc1ncsc1-c1ccc([C@H](N)C(=O)O)cc1; X3 = Cc1ncsc1-c1ccc(C(N[*:1])C(=O)[*:2])cc1; Hyp = O=C(O)[C@@H]1C[C@@H](O)CN1; Tle = CC(C)(C)[C@H](N)C(=O)O; d(hCys) = N[C@H](CCS)C(=O)O; dDab = NCC[C@@H](N)C(=O)O; dNMeC = CN[C@H](CS)C(=O)O; dDap = NC[C@@H](N)C(=O)O; Dap = NC[C@H](N)C(=O)O; AEA = NCCOCC(=O)O; βAla = NCCC(=O)O Some results are limits rather than exact numbers.

The target of this experiment is T1, BRD4 (Homo sapiens, UniProt O60885).
T1 construct: Mean 488 intensity of BRD4 quantitated in nuclear region; endogenous in cells; host or cells: EoL-1 eosinophilic leukemia cells
Put plainly: BRD4 degradation assay in EOL1 cells (immunofluorescence imaging). In kind it is cell-based. The settings on record: EoL-1 eosinophilic leukemia cells, 4 hours treatment, nuclear BRD4 immunofluorescence. As to the method:
BRD4 Degradation Assay in EOL1 Cells
EoL-1 eosinophilic leukemia cells were seeded on day 1 at a density of 45,000 cells per well in Corning PureCoat Amine Microplates, (Corning #354719) in 45 μL/well of assay media (RPMI, 10% FBS, containing L-glutamine). After cells attached to cell plate, compounds were serially diluted ⅓ in dimethylsulfoxide (DMSO) to create 20-point dilutions across a 384 well v-bottom polypropylene microplate (Greiner #781091). 2 μL of each sample from the serial dilution was transferred to 98 μL of assay media as an intermediate dilution. 5 μL of each well of the intermediate dilution was added to 45 μL of cell plate. Columns 1, 2, 23 and 24 were treated with only 0.2% final concentration of DMSO for data normalization as “neutral controls”. After compound treatment, cell plates were stored in a 37° C. incubator for 4 hours. After 4 hours cells were fixed in 3.7% w/v final concentration of paraformaldehyde by addition of 15 μL of 16% w/v paraformaldehyde (Electron Microscopy Sciences #15710-S) directly to the 50 μL media and compound in the cell plate. Cell plate was incubated at RT for 20 minutes. Well contents were aspirated and washed with 100 μL/well PBS 3 times. 50 ul/well of phosphate Buffered Saline (PBS) (pH 7.5) containing 0.5% w/v bovine serum albumen, 0.5% w/v Triton X-100 (Block/Permeabilization Buffer) was added to each well. Samples were incubated for 20 minutes. Well contents were aspirated and washed 3 times with 100 μL/well of PBS. PBS was aspirated from the well and 50 μL per well of EoL-1 Block Buffer (PBS containing 10% Normal Goat Serum (AbCam #ab7481)) was added to each well. Plates were incubated at room temperature for 30 minutes. Block buffer was decanted from the wells. Immunofluorescence staining of BRD4 was carried out by diluting mAB Anti-BRD4 [EPR5150] antibody (Abcam 128874) 1:500 into Antibody Dilution Buffer (PBS, 2% Normal Goat Serum). 25 μL per well of BRD4 antibody diluted in buffer was added and incubated overnight at 4° C.
On day-2 samples were washed 3 times with 100 μL/well of PBS. 25 μL/well of secondary antibody solution (Goat Anti-Rabbit IgG, DyLight 488 Conjugated Highly Cross-adsorbed Thermo Fisher #35553) and Hoechst 33342 1 μg/ml diluted in Antibody Dilution Buffer) were dispensed into each well. Hoechst 33342 only was added to bottom 3 columns for data normalization as “inhibitor controls”. Samples were incubated for 2 hours at room temperature. Samples were washed 3 times with 100 μL PBS. Quantitative fluorescence imaging of BRD4 was carried out using an Opera Phenix High-Content Screening System. Fluorescent images of the samples were captured using 488 nm and 405 nm channels. Hoechst channel was used to identify nuclear region. Mean 488 intensity of BRD4 quantitated in nuclear region. Data analysis was carried out using Genedata Screener, with DMSO and no primary antibody control treated samples being used to define the 0% and 100% changes in BRD4. The dose-response log(inhibitor) vs. response used to define the inflexion point of curve (DC50) and the plateau of the maximal effect.
The individual topological polar surface area (TPSA) and cLogP values were calculated using Chemdraw v. 15.1 (PerkinElmer). Half life of the ternary VHL/BD1 and VHL/BD2 complexes, DC50 of BRD4 in EOL1 cells, topological polar surface area of a molecule (TPSA) and c log P (lipophilicity) for compounds described herein are provided in Table 3.
On to `Cc1ncsc1-c1ccc([C@H]2NC(=O)[C@@H]3C[C@@H](O)CN3C(=O)[C@H](C(C)(C)C)NC(=O)CSC[C@H](C(N)=O)NC(=O)[C@@H](CNC(=O)C[C@@H]3N=C(c4ccc(Cl)cc4)c4c(sc(C)c4C)-n4c(C)nnc43)NC(=O)CNC2=O)cc1` [Compound 1] ({CH2CO}-[Tle][Hyp][dPhg(4-(4-Me-thiazol-5-yl))]G[dDap](JQ1acid)[dC]-NH2; thioether N-6), for which the DC50 was below 1 µM.

As to `Cc1ncsc1-c1ccc([C@@H]2NC(=O)[C@@H]3C[C@@H](O)CN3C(=O)[C@H](C(C)(C)C)NC(=O)CSC[C@H](C(N)=O)NC(=O)[C@@H](CNC(=O)C[C@@H]3N=C(c4ccc(Cl)cc4)c4c(sc(C)c4C)-n4c(C)nnc43)NC(=O)CNC2=O)cc1` [Compound 2] ({CH2CO}-[Tle][Hyp][Phg(4-(4-Me-thiazol-5-yl))]G[dDap](JQ1acid)[dC]-NH2; thioether N-6), the DC50 is above 20 µM.

`Cc1ncsc1-c1ccc(C2NC(=O)[C@@H]3C[C@@H](O)CN3C(=O)[C@H](C(C)(C)C)NC(=O)CSCC[C@H](C(N)=O)NC(=O)[C@@H](CNC(=O)C[C@@H]3N=C(c4ccc(Cl)cc4)c4c(sc(C)c4C)-n4c(C)nnc43)NC(=O)CNC2=O)cc1` (some centres unmarked) [Compound 3] ({CH2CO}-[Tle][Hyp][X3]G[dDap](JQ1acid)[d(hCys)]-NH2; thioether N-6) displayed a DC50 below 1 µM.

In the case of `Cc1ncsc1-c1ccc(C2NC(=O)[C@@H]3C[C@@H](O)CN3C(=O)[C@H](C(C)(C)C)NC(=O)CSC[C@H](C(N)=O)NC(=O)[C@@H](CNC(=O)C[C@@H]3N=C(c4ccc(Cl)cc4)c4c(sc(C)c4C)-n4c(C)nnc43)NC(=O)CCNC2=O)cc1` (some centres unmarked) [Compound 4] ({CH2CO}-[Tle][Hyp][X3][βAla][dDap](JQ1acid)[dC]-NH2; thioether N-6), the DC50 is below 20 µM.

As to `Cc1ncsc1-c1ccc([C@H]2NC(=O)[C@@H]3C[C@@H](O)CN3C(=O)[C@H](C(C)(C)C)NC(=O)CSCC[C@H](C(N)=O)NC(=O)[C@@H](CNC(=O)C[C@@H]3N=C(c4ccc(Cl)cc4)c4c(sc(C)c4C)-n4c(C)nnc43)NC(=O)CCNC2=O)cc1` [Compound 5] ({CH2CO}-[Tle][Hyp][dPhg(4-(4-Me-thiazol-5-yl))][βAla][dDap](JQ1acid)[d(hCys)]-NH2; thioether N-6), the DC50 is below 20 µM.

In the case of `Cc1ncsc1-c1ccc([C@H]2NC(=O)[C@@H]3C[C@@H](O)CN3C(=O)[C@H](C(C)(C)C)NC(=O)CNC(=O)[C@H](CCC(N)=O)NC(=O)[C@@H](CNC(=O)C[C@@H]3N=C(c4ccc(Cl)cc4)c4c(sc(C)c4C)-n4c(C)nnc43)NC(=O)CNC2=O)cc1` [Compound 6] (cyclo(G[Tle][Hyp][dPhg(4-(4-Me-thiazol-5-yl))]G[dDap](JQ1acid)Q)), the DC50 is below 20 µM.

On to `Cc1ncsc1-c1ccc([C@@H]2NC(=O)[C@@H]3C[C@@H](O)CN3C(=O)[C@H](C(C)(C)C)NC(=O)CNC(=O)[C@H](CCC(N)=O)NC(=O)[C@@H](CNC(=O)C[C@@H]3N=C(c4ccc(Cl)cc4)c4c(sc(C)c4C)-n4c(C)nnc43)NC(=O)CNC2=O)cc1` [Compound 7] (cyclo(G[Tle][Hyp][Phg(4-(4-Me-thiazol-5-yl))]G[dDap](JQ1acid)Q)), for which the DC50 was below 20 µM.

On to `Cc1sc2c(c1C)C(c1ccc(Cl)cc1)=N[C@@H](CC(=O)NC[C@H]1NC(=O)CNC(=O)[C@@H](C)NC(=O)[C@@H]3C[C@@H](O)CN3C(=O)[C@H](C(C)(C)C)NC(=O)CSC[C@H](C(N)=O)NC1=O)c1nnc(C)n1-2` [Compound 8] ({CH2CO}-[Tle][Hyp][dA]G[dDap](JQ1acid)[dC]-NH2; thioether N-6), for which the DC50 was below 20 µM.

For the molecule `Cc1ncsc1-c1ccc([C@H]2NC(=O)[C@@H]3C[C@@H](O)CN3C(=O)[C@H](C(C)(C)C)NC(=O)CSC[C@H](C(N)=O)NC(=O)[C@@H](CCNC(=O)C[C@@H]3N=C(c4ccc(Cl)cc4)c4c(sc(C)c4C)-n4c(C)nnc43)NC(=O)CNC2=O)cc1` [Compound 9] ({CH2CO}-[Tle][Hyp][dPhg(4-(4-Me-thiazol-5-yl))]G[dDab](JQ1acid)[dC]-NH2; thioether N-6), the DC50 was above 20 µM.

Regarding `Cc1ncsc1-c1ccc([C@@H]2NC(=O)[C@@H]3C[C@@H](O)CN3C(=O)[C@H](C(C)(C)C)NC(=O)CSC[C@H](C(N)=O)NC(=O)[C@@H](CCNC(=O)C[C@@H]3N=C(c4ccc(Cl)cc4)c4c(sc(C)c4C)-n4c(C)nnc43)NC(=O)CNC2=O)cc1` [Compound 10] ({CH2CO}-[Tle][Hyp][Phg(4-(4-Me-thiazol-5-yl))]G[dDab](JQ1acid)[dC]-NH2; thioether N-6), the DC50 was above 20 µM.

Molecule `Cc1ncsc1-c1ccc([C@H]2NC(=O)[C@@H]3C[C@@H](O)CN3C(=O)[C@H](C(C)(C)C)NC(=O)CSC[C@H](C(=O)NCC(=O)NCC(=O)NCC(N)=O)NC(=O)[C@@H](CNC(=O)C[C@@H]3N=C(c4ccc(Cl)cc4)c4c(sc(C)c4C)-n4c(C)nnc43)NC(=O)CNC2=O)cc1` [Compound 11] ({CH2CO}-[Tle][Hyp][dPhg(4-(4-Me-thiazol-5-yl))]G[dDap](JQ1acid)[dC]GGG-NH2; thioether N-6) returned a 50% degradation concentration (DC50) above 20 µM.

Consider `Cc1ncsc1-c1ccc([C@H]2NC(=O)[C@@H]3C[C@@H](O)CN3C(=O)[C@H](C(C)(C)C)NC(=O)CSC[C@H](C(N)=O)NC(=O)[C@@H](CNC(=O)C[C@@H]3N=C(c4ccc(Cl)cc4)c4c(sc(C)c4C)-n4c(C)nnc43)NC(=O)[C@H](C)NC2=O)cc1` [Compound 12] ({CH2CO}-[Tle][Hyp][dPhg(4-(4-Me-thiazol-5-yl))]A[dDap](JQ1acid)[dC]-NH2; thioether N-6), for which the half-maximal degradation concentration (DC50) is above 20 µM.

Turning to `Cc1ncsc1-c1ccc([C@H]2NC(=O)[C@@H]3C[C@@H](O)CN3C(=O)[C@H](C(C)(C)C)NC(=O)CSC[C@H](C(N)=O)NC(=O)[C@H](CNC(=O)C[C@@H]3N=C(c4ccc(Cl)cc4)c4c(sc(C)c4C)-n4c(C)nnc43)NC(=O)CNC2=O)cc1` [Compound 13] ({CH2CO}-[Tle][Hyp][dPhg(4-(4-Me-thiazol-5-yl))]G[Dap](JQ1acid)[dC]-NH2; thioether N-6), the DC50 is above 20 µM.

Turning to `Cc1ncsc1-c1ccc([C@@H]2NC(=O)[C@@H]3C[C@@H](O)CN3C(=O)[C@H](C(C)(C)C)NC(=O)CSC[C@H](C(N)=O)NC(=O)[C@H](CNC(=O)C[C@@H]3N=C(c4ccc(Cl)cc4)c4c(sc(C)c4C)-n4c(C)nnc43)NC(=O)CNC2=O)cc1` [Compound 14] ({CH2CO}-[Tle][Hyp][Phg(4-(4-Me-thiazol-5-yl))]G[Dap](JQ1acid)[dC]-NH2; thioether N-6), the DC50 is above 20 µM.

`Cc1ncsc1-c1ccc([C@H]2NC(=O)[C@@H]3C[C@@H](O)CN3C(=O)[C@H](C(C)(C)C)NC(=O)CSC[C@H](C(N)=O)N(C)C(=O)[C@@H](CNC(=O)C[C@@H]3N=C(c4ccc(Cl)cc4)c4c(sc(C)c4C)-n4c(C)nnc43)NC(=O)CNC2=O)cc1` [Compound 15] ({CH2CO}-[Tle][Hyp][dPhg(4-(4-Me-thiazol-5-yl))]G[dDap](JQ1acid)[dNMeC]-NH2; thioether N-6) displayed a 50% degradation concentration (DC50) below 20 µM.

`Cc1ncsc1-c1ccc([C@H]2NC(=O)[C@@H]3C[C@@H](O)CN3C(=O)[C@H](C(C)(C)C)NC(=O)COCCNC(=O)[C@@H](CNC(=O)C[C@@H]3N=C(c4ccc(Cl)cc4)c4c(sc(C)c4C)-n4c(C)nnc43)NC(=O)CNC2=O)cc1` [Compound 16] (cyclo([AEA][Tle][Hyp][dPhg(4-(4-Me-thiazol-5-yl))]G[dDap](JQ1acid))) came in with a DC50 below 1 µM.

The molecule `Cc1ncsc1-c1ccc([C@@H]2NC(=O)[C@@H]3C[C@@H](O)CN3C(=O)[C@H](C(C)(C)C)NC(=O)COCCNC(=O)[C@@H](CNC(=O)C[C@@H]3N=C(c4ccc(Cl)cc4)c4c(sc(C)c4C)-n4c(C)nnc43)NC(=O)CNC2=O)cc1` [Compound 17] (cyclo([AEA][Tle][Hyp][Phg(4-(4-Me-thiazol-5-yl))]G[dDap](JQ1acid))) had a DC50 below 1 µM.

A word on the DC50: it is the concentration giving 50% degradation. Lower therefore signals degradation at low concentration.
